Measured values as given in patent US20240209028A1, “CNP COMPOUNDS” (priority 2022, published 2024).
Like-named read-outs stand apart in the source and are kept apart here. Starred links: 1 amine or outer side, 2 acyl side, 3 side chain; linkers in the order of their positions; H or OH if unused. Positions of bridges follow the written chain, without caps; N, C: chain ends. Residues, ends and D or L forms follow the SMILES beside them. *: point of attachment. C18 diacid = O=C(O)CCCCCCCCCCCCCCCCC(=O)*; γGlu = O=C(O)[C@H](CCC(=O)[*:2])N[*:1]; X1 = O=C(CCCCCCCCCCCCCCCCc1nnn[nH]1)*; AEEA = NCCOCCOCC(=O)O

Assay: PK of CNP compounds after i.v. and s.c. administration to rats
Conditions: male, Sprague Dawley, in vivo, rat; for clearance: read-out: Cl (L/hr/kg), i.v. administration (converted)
Protocol: In order to assess the i.v. and s.c. PK/PD profile of CNP compounds of the present invention, formulations of CNP compounds were administered to rats, blood samples taken and exposure and cGMP response measured.
Quantitative plasma analysis of CNP-compounds: Plasma concentrations of CNP compounds were assayed by plasma protein precipitation and analysed by turboflow liquid chromatography mass spectrometry (TF-LC-MS). Calibrators were prepared by spiking either blank rat or minipig plasma with the relevant CNP compound in the range from 0.5 to 2000 nM. Calibrators, plasma blanks or study samples were prepared for TF-LC-MS by protein precipitation by adding three or four volumes of either ethanol or methanol containing 20 nM of internal standard to one volume of sample. For some compounds, formic acid was added to the precipitation reagent (the final concentration was 1% v/v). After the addition of the precipitation reagent, the mixture was centrifuged at 6200 rpm at 4° C. for 30 minutes. After centrifugation, one volume of supernatant was mixed with two volumes of water (with 1% v/v formic acid). The mixture was analysed by TF-LC-MS using a Cyclone turboflow column (0.5×50 mm, ThermoFisher Scientific) and either a XBridge Protein BEH C4 3.5 μm 300 Åor a XBridge Protein BEH C18 3.5 μm 130 Åanalytical column (both were 50×2.1 mm and obtained from Waters). […] The mass spectrometer was operated in positive ionisation mode. A TSQ Altis mass spectrometer (ThermoFisher Scientific) was used as detector in selected reaction monitoring mode (specific transition were optimised for each CNP compound). Linear calibration curves (weighed 1/×2) were used for calculating the concentration in the plasma samples. Quality control samples were included. The deviation between nominal and calculated concentration in the calibrators and quality control samples were below 15%.
Animals and dosing: Groups of 4-6 rats (male, Sprague Dawley, 350 g at arrival, Janvier, France) per compound and route of administration were dosed with a CNP compound formulated either in A) 8 mM sodium phosphate, 250 mM glycerol, 0.007% polysorbate 20, pH 7.4 or B) 5 mM sodium acetate, 250 mM glycerol, 0.007% polysorbate 20, pH 4.0 depending on the respective compound. S.c. dose was 300 nmol/kg, at a concentration of […] resulting in a dosing volume of 0.3 mL/kg, whereas i.v. dose was 100 nmol/kg, at a concentration of […] resulting in a dosing volume of 1 mL/kg.
Sampling: Sublingual blood samples of 250 uL were collected from unanaesthetised rats in EDTA-coated vials (Microvette 600K3E ref #15.1673.100 Sarstedt) at baseline (-1 h before dosing) as well as 5 min (only i.v. dosed groups), 2 h, 6 h, 24 h, 48 h and 72 h (only for exposure analysis) post-dosing. The blood samples were quickly stored on ice and centrifuged (4° C., 8000 RPM, 5 min) within 10 min of collection. Plasma samples of 50 μL were transferred to each micronic tube for either exposure or cGMP analysis, kept on dry ice and stored in a freezer (−20° C.). Rats had access to food (Altromin) and tap water ad libitum.
Analysis: PK parameters were calculated by non-compartment analysis (NCA) using software Phoenix WinNonlin (ver. 8.1 or later, Certara) for each animal. Clearance (Cl) was calculated as: Dose/AUCinf (linear up, log down). […] Bioavailability was calculated as dose normalized AUC's: (AUC(sc)/Dose(sc))/(AUC(iv)/Dose(iv)). Values in the table are means from individual animals (n=4-6 individual animals). The subsequent plots for cGMP plasma concentration versus time are (Y-axis) mean cGMP concentration (n=4-6 individual animals) after IV dosing and (X-axis) nominal plasma sampling time.
Plasma cGMP are reported as the mean.

[1] = iv, i.v., about 100 nmol/kg, read-out: T½ (hr), i.v. administration (converted)

Row | SMILES | clearance (iv, i.v., about 100 nmol/kg) [L/h/kg] | half-life [1] [h] | bioavailability (sc, s.c. bioavailability, about 300 nmol/kg, read-out: F (%), s.c. administration) [%] | half-life (sc, s.c., about 300 nmol/kg, read-out: T½ (hr), s.c. administration (converted)) [h]
1 | CC[C@H](C)[C@@H]1NC(=O)[C@H](CCCNC(=N)N)NC(=O)[C@H](CC(=O)O)NC(=O)[C@H](CC(C)C)NC(=O)[C@@H]2CCCN2C(=O)[C@H](CC(C)C)NC(=O)CNC(=O)[C@H](Cc2ccccc2)NC(=O)[C@@H](NC(=O)CNC(=O)[C@H](CCC(N)=O)NC(=O)[C@H](CO)NC(=O)[C@H](CC(C)C)NC(=O)CNC(=O)[C@H](CO)NC(=O)[C@H](CCCCN)NC(=O)[C@H](CCC(N)=O)NC(=O)[C@H](C)NC(=O)CNC(=O)[C@H](Cc2c[nH]cn2)NC(=O)[C@H](Cc2ccc(O)cc2)NC(=O)[C@H](CCCCN)NC(=O)[C@H](CCCNC(=N)N)NC(=O)[C@H](C)NC(=O)COCCOCCNC(=O)COCCOCCNC(=O)CC[C@H](NC(=O)CC[C@H](NC(=O)CCCCCCCCCCCCCCCCc2nnn[nH]2)C(=O)O)C(=O)O)CSSC[C@@H](C(=O)O)NC(=O)CNC(=O)[C@H](CC(C)C)NC(=O)CNC(=O)[C@H](CO)NC(=O)[C@H](CC(C)C)NC(=O)[C@H](CO)NC(=O)CNC1=O [compound 1426] ({X1-γGlu-γGlu-AEEA-AEEA}-ARKYHGAQKSGLSQGCFGLPLDRIGSLSGLGC-OH; disulfide 16-32) | 0.00348 | 9.96 | – | –
2 | CC[C@H](C)[C@@H]1NC(=O)[C@H](CCCNC(=N)N)NC(=O)[C@H](CC(=O)O)NC(=O)[C@H](CC(C)C)NC(=O)[C@@H]2CCCN2C(=O)[C@H](CC(C)C)NC(=O)CNC(=O)[C@H](Cc2ccccc2)NC(=O)[C@@H](NC(=O)CNC(=O)[C@H](CO)NC(=O)[C@H](CO)NC(=O)[C@H](CC(C)C)NC(=O)CNC(=O)[C@H](CCCCN)NC(=O)[C@H](CCCCN)NC(=O)[C@H](CCC(N)=O)NC(=O)[C@H](C)NC(=O)CNC(=O)[C@H](Cc2c[nH]cn2)NC(=O)[C@H](Cc2ccc(O)cc2)NC(=O)COCCOCCNC(=O)COCCOCCNC(=O)CC[C@H](NC(=O)CCCCCCCCCCCCCCCCC(=O)O)C(=O)O)CSSC[C@@H](C(=O)O)NC(=O)CNC(=O)[C@H](CC(C)C)NC(=O)CNC(=O)[C@H](CO)NC(=O)[C@H](CC(C)C)NC(=O)[C@H](CO)NC(=O)CNC1=O [compound 1241] ({C18 diacid-γGlu-AEEA-AEEA}-YHGAQKKGLSSGCFGLPLDRIGSLSGLGC-OH; disulfide 13-29) | 0.0164 | 2.78 | – | –
3 | CC[C@H](C)[C@@H]1NC(=O)[C@H](CCCNC(=N)N)NC(=O)[C@H](CC(=O)O)NC(=O)[C@H](CC(C)C)NC(=O)[C@@H]2CCCN2C(=O)[C@H](CC(C)C)NC(=O)CNC(=O)[C@H](Cc2ccccc2)NC(=O)[C@@H](NC(=O)CNC(=O)[C@H](CCCCN)NC(=O)[C@H](CO)NC(=O)[C@H](CC(C)C)NC(=O)CNC(=O)[C@H](CCCCN)NC(=O)[C@H](CCCCN)NC(=O)[C@H](CCC(N)=O)NC(=O)[C@H](C)NC(=O)CNC(=O)[C@H](CCC(=O)O)NC(=O)[C@H](Cc2ccc(O)cc2)NC(=O)COCCOCCNC(=O)COCCOCCNC(=O)CC[C@H](NC(=O)CCCCCCCCCCCCCCCCC(=O)O)C(=O)O)CSSC[C@@H](C(=O)O)NC(=O)CNC(=O)[C@H](CC(C)C)NC(=O)CNC(=O)[C@H](CO)NC(=O)[C@H](CC(C)C)NC(=O)[C@H](CO)NC(=O)CNC1=O [compound 1225] ({C18 diacid-γGlu-AEEA-AEEA}-YEGAQKKGLSKGCFGLPLDRIGSLSGLGC-OH; disulfide 13-29) | 0.0103 | 5.03 | 61.2 | 5.1
